Where two headings read alike, the source gives them in different places.
Key:
Format in all cases: in vivo, rat
[1] = Toxicokinetics study, plasma concentration by LC-MS/MS after single i.v. bolus; conditions: for Clast / Cmax / AUC(0-t) / C0 / clearance / Vd / k el / half-life: female Sprague Dawley rats, plasma, mean ± SE, n = 6; for Cmax / AUC(0-t) / C0 / clearance / Vd / k el / half-life: rat, iv; for AUC(0-t): read-out: AUC0–8h; for C0: read-out: C0 (initial concentration); for clearance: read-out: Cl (clearance) (converted); for Vd: read-out: Vd (volume of distribution); for k el: read-out: kel (elimination constant) (converted); for half-life: read-out: t1/2 (half-life) (converted)
Procedure: (§1) For the toxicokinetics study of QN23, female Sprague Dawley rats (9–10 weeks, Envigo, Barcelona, Spain) were divided into three groups (n = 6 per group) and treated intravenously with different concentrations of QN23 (2.0, 6.0, and 18 mg/kg), in vehicle solution (ethanol/polyethylene glycol 400/saline, 1:200:60 v/v), as a single bolus of 1 mL injection at 3 mL/min. Samples of plasma were taken at 0.25, 0.5, 1, 2, 4, and 8 h after the first administration (on day 1) and QN23 concentration was determined by liquid chromatography–mass spectrometry in tandem (LC-MS/MS) analysis for pharmacokinetic study. For the determination of the toxicokinetic parameters, a noncompartmental analysis was performed using the Phoenix 64 WinNonlin software (version 8.0, Certara, Sant Louis, MO, USA). This study was carried out by Swiss BioQuant AG (Reinach, Switzerland). For the toxicity study of QN23, rats were divided into four groups (n = 5 per group) and treated intravenously with vehicle (control group) or different concentrations of QN23 (2.0, 6.0, and 18 mg/kg) as a single bolus injection in a 4-day repeated dose as described above. Pathology analyses, comprising hematology, clinical biochemistry, and coagulation, were performed, and heart, kidney, liver, and spleen necropsies were collected for macroscopic analysis. This study was carried out by Vivotecnia Research S.L (Madrid, Spain).

[2] = test system: male Wistar rats, transient middle cerebral artery occlusion (tMCAO); assay: Infarct and edema volume (TTC staining) in transient focal cerebral ischemia (tMCAO); conditions: 48 h after tMCAO
Procedure: For the transient focal cerebral ischemia experimental model we used 12-week-old male Wistar rats (300–350 g, Charles River), housed under standard conditions with food and water ad libitum. The animals were anesthetized by an intraperitoneal injection of a mixture of 100 mg/kg ketamine, 5 mg/kg diazepam, and 0.3 mg/kg atropine. Anesthesia was maintained during the surgical procedure by inhalation of 1–1.5% sevoflurane in 80% medicinal air plus 20% O2. For the transient occlusion of the right middle cerebral artery (tMCAO, 60 min), we followed the intraluminal suture procedure as originally described, adapted to our experimental setup. The procedure included continuous monitoring of cortical perfusion (CP, by Laser-Doppler flowmetry), arterial blood pressure, and core temperature, and discontinuous measurement of glycemia levels during preischemia (basal), ischemia, and reperfusion stages. Buprenorphine (subcutaneous, 0.05 mg/kg) was used as an analgesic. Forty-eight hours after the ischemic insult, the animals were euthanized by intracardiac injection of potassium chloride (200 mg/kg) under deep anesthesia, and the brains were obtained.
A power analysis (see above) provided a sample size of 6 subjects per group. A total of 35 animals was used in this study. […]
Brain infarct volume was determined by the 2,3,5-triphenyltetrazolium chloride (TTC; Sigma-Aldrich, Merck KGaA, Darmstadt, Germany) vital staining method, followed by morphometric analysis by a researcher blind to the treatment allocation. […] In order to correct for the influence of edema, the infarcted area was calculated as follows: corrected infarct area = infarct area × (contralateral hemisphere area / ipsilateral hemisphere area). The corrected infarct area was measured on both the anterior and the posterior sides of each slice and averaged; the corrected infarct volume was calculated by multiplying the average corrected infarct area by the thickness of the slice (2 mm), and the total corrected infarct volume by adding up the corrected infarct volume of the seven slices. […]

[3] = test system: female Sprague Dawley rats; assay: Toxicity study, 4-day repeated i.v. dose
Procedure: as §1

[4] = four-day repeated i.v. dose, 2.0, 6.0 and 18 mg/kg
[5] = four-day repeated i.v. dose, at some doses, no treatment-related effects concluded

SMILES: COc1ccc2nc(Cl)c(/C=[N+](\[O-])C(C)(C)C)cc2c1 [QN23, (Z)-N-tert-Butyl-1-(2-chloro-6-methoxyquinolin-3-yl)methanimine Oxide]
- Clast ([1]; 2.0 mg/kg single i.v. bolus): 30 ± 8 ng/mL
- Latest time after injection with quantifiable plasma concentration ([1]; 6 mg/kg single i.v. bolus): ≤ 4 h
- Clast ([1]; 6.0 mg/kg single i.v. bolus): 34 ± 5 ng/mL
- Last concentration found as share of the initial (and maximal) detected concentration ([1]; 18 mg/kg single i.v. bolus): approximately 1%
- Clast ([1]; 18 mg/kg single i.v. bolus): 49 ± 5 ng/mL
- AUC0–8h versus dose ([1]; 2.0, 6.0 and 18 mg/kg single i.v. bolus): increased proportional to the dose administered
- Cmax ([1]; 2.0 mg/kg single i.v. bolus): 161 ± 86 ng/mL
- AUC(0-t) ([1]; 2.0 mg/kg single i.v. bolus): 160 ± 61 ng·h/mL
- C0 ([1]; 2.0 mg/kg single i.v. bolus): 540 ± 186 ng/mL
- Cmax ([1]; 6.0 mg/kg single i.v. bolus): 1090 ± 371 ng/mL
- AUC(0-t) ([1]; 6.0 mg/kg single i.v. bolus): 1010 ± 355 ng·h/mL
- C0 ([1]; 6.0 mg/kg single i.v. bolus): 2170 ± 661 ng/mL
- Cmax ([1]; 18 mg/kg single i.v. bolus): 2570 ± 1200 ng/mL
- AUC(0-t) ([1]; 18 mg/kg single i.v. bolus): 2960 ± 1290 ng·h/mL
- C0 ([1]; 18 mg/kg single i.v. bolus): 4350 ± 1860 ng/mL
- clearance ([1]; 2.0 mg/kg single i.v. bolus): 73.3 mL/min
- Vd ([1]; 2.0 mg/kg single i.v. bolus): 1.26 ± 0.434 L
- k el ([1]; 2.0 mg/kg single i.v. bolus): 0.00118 s⁻¹
- half-life ([1]; 2.0 mg/kg single i.v. bolus): 9.6 ± 0.6 min
- clearance ([1]; 6.0 mg/kg single i.v. bolus): 56.7 mL/min
- Vd ([1]; 6.0 mg/kg single i.v. bolus): 1.66 ± 0.584 L
- k el ([1]; 6.0 mg/kg single i.v. bolus): 0.000931 s⁻¹
- half-life ([1]; 6.0 mg/kg single i.v. bolus): 14.4 ± 1.8 min
- clearance ([1]; 18 mg/kg single i.v. bolus): 78.1 mL/min
- Vd ([1]; 18 mg/kg single i.v. bolus): 20.4 ± 12.3 L
- k el ([1]; 18 mg/kg single i.v. bolus): 0.000347 s⁻¹
- half-life ([1]; 18 mg/kg single i.v. bolus): 67.8 ± 23.4 min
- Brain damage (total infarct volume) compared with vehicle ([2]; 1.5 mg/kg and 2.5 mg/kg i.v.): significantly reduced brain damage
- Edema volume compared with vehicle ([2]; 1.5 mg/kg and 2.5 mg/kg i.v.): reduced
- Brain damage (total infarct volume) compared with vehicle ([2]; 4 mg/kg i.v.): not at 4 mg/kg
- Tolerability of repeated intravenous administration ([3]; 2.0, 6.0 and 18 mg/kg i.v. for four days): well tolerated
- Treatment-related systemic signs ([3]; 2.0, 6.0 and 18 mg/kg i.v., four-day repeated dose, compared with control group): no treatment-related systemic signs were detected
- Absolute or relative organ weights versus control group [3, 4]: no significant differences
- Food intake [3, 4]: no effects were observed
- Macroscopic findings at necropsy (heart, kidneys, liver, spleen) [3, 4]: no macroscopic findings
- Alkaline phosphatase (ALP) level, slight variation [3, 5]: decreased
- Aspartate aminotransferase (AST) level, slight variation [3, 5]: increased

From publication PMC9220178, “Preclinical Characterization of Antioxidant Quinolyl Nitrone QN23 as a New Candidate for the Treatment of Ischemic Stroke” (Antioxidants, 2022)
